Test results published in patent US20060182792A1, “Liposome-forming compositions” (priority 2002, published 2006).

Test: Absolute oral bioavailability of liposomally administered octreotide per os in rats
Description: Wistar rats (with approximately 250 g body weight) fast for 12 hours and receive 0.5 ml of the aqueous mixture of the composition according to the invention by pharyngeal probe so that the administered amount of octreotide is 100 μg per animal. As a comparative test 100 μg of free octreotide was dissolved in 0.5 ml of PBS and administered via pharyngeal probe. Blood samples were taken after 30, 60, 120 and 240 min. retroorbitally. An i.v. injection of 2 μg of octreotide per animal provided a control in order to determine the absolute bioavailability. […] Six animals were tested for each formulation.

Q: Which bioavailability (Wistar, rat, in vivo, 100 μg per animal) does the source give for C[C@@H](O)[C@@H]1NC(=O)[C@H](CCCCN)NC(=O)[C@@H](Cc2c[nH]c3ccccc23)NC(=O)[C@H](Cc2ccccc2)NC(=O)[C@@H](NC(=O)[C@H](N)Cc2ccccc2)CSSC[C@@H](C(=O)N[C@H](CO)[C@@H](C)O)NC1=O [Free, octreotide] here?
A: 0.5%

Q: And the “Gain factor of the absolute bioavailability vs free octreotide” value (free octreotide, oral, 0.1 mg/animal, lipid/peptide 0)?
A: 1
